Measurements published in US8062607B2, “Lens care methods and kits” (Novartis AG, priority 2006, dated 2011).

Columns and labels:
[1] = Micro testing of dye in Aquify MPS as a stand alone solution; format: cell-based; details: dissolved in Aquify MPS
Source text: FD&C Blue No 1, Sanolin Blue, and Remazol Blue dissolved in Aquify® MPS (CIBA Vision) are submitted for micro testing as a stand alone solution.

[2] = Colorant stability in lens care solution (visible spectrum); format: physicochemical; details: in Aquify MPS
Method: The colorant stability has also been tested for FD&C Blue No 1 in Aquify® MPS stored at 25° and 45° C. for 94 days. […] This gives us a shelf-life estimation based on colorant stability alone of approximately a year for FD&C Blue No 1 in Aquify® MPS. The colorant stability has also been tested for Vitosyn Blue in a lens care solution described above stored at 25° and 45° C. for 52 days. […] This gives a shelf life estimation based on colorant stability alone for approximately 7 months for Vitosyn Blue in the lens care solution.

CCN(Cc1cccc(S(=O)(=O)[O-])c1)c1ccc(C(=C2C=CC(=[N+](CC)Cc3cccc(S(=O)(=O)[O-])c3)C=C2)c2ccccc2S(=O)(=O)[O-])cc1.[Na+].[Na+] [FD&C Blue No 1]
micro testing as a stand alone solution [1]: passes all micro testing | shelf-life estimation based on colorant stability alone [2]: approximately a year | change of visible spectrum from time 0 ([2]; 25° and 45° C., 94 days): has not changed significantly
